Patent US20150105252A1, “SUBSTITUTED PYRAZOLES AS HERBICIDES” (E I DU PONT DE NEMOURS AND COMPANY, priority 2013, published 2015)

Columns and labels:
[1] = system: barnyardgrass; assay: Test A preemergence; type: in vivo, Echinochloa crus-galli; conditions: 0 to 100 scale
Outline: (§1)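 Pre- and postemergence greenhouse test; loam+sand; cpd in non-phytotox. solvent/surfactant; post at 1–2 leaf, 2–10 cm; visual score ~10 d, 0 = none, 100 = complete control.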

[2] = system: crabgrass, large; assay: Test A preemergence; type: in vivo, Digitaria sanguinalis; conditions: 0 to 100 scale
Outline: as §1

[3] = system: foxtail, giant; assay: Test A preemergence; type: in vivo, Setaria faberii; conditions: 0 to 100 scale
Outline: as §1

[4] = system: morningglory; assay: Test A preemergence; type: in vivo, Ipomoea spp.; conditions: 0 to 100 scale
Outline: as §1

[5] = system: pigweed; assay: Test A preemergence; type: in vivo, Amaranthus retroflexus; conditions: 0 to 100 scale
Outline: as §1

[6] = system: velvetleaf; assay: Test A preemergence; type: in vivo, Abutilon theophrasti; conditions: 0 to 100 scale
Outline: as §1

[7] = system: wheat; assay: Test A preemergence; type: in vivo, Triticum aestivum; conditions: 0 to 100 scale
Outline: as §1

[8] = system: corn; assay: Test A preemergence; type: in vivo, Zea mays; conditions: 0 to 100 scale
Outline: as §1

[9] = system: barnyardgrass; assay: Test A postemergence; type: in vivo, Echinochloa crus-galli; conditions: Postemergence
Outline: as §1

[10] = system: crabgrass, large; assay: Test A postemergence; type: in vivo, Digitaria sanguinalis
Outline: as §1

[11] = system: foxtail, giant; assay: Test A postemergence; type: in vivo, Setaria faberii
Outline: as §1

[12] = system: morningglory; assay: Test A postemergence; type: in vivo, Ipomoea spp.
Outline: as §1

[13] = system: pigweed; assay: Test A postemergence; type: in vivo, Amaranthus retroflexus
Outline: as §1

[14] = system: velvetleaf; assay: Test A postemergence; type: in vivo, Abutilon theophrasti
Outline: as §1

[15] = system: wheat; assay: Test A postemergence; type: in vivo, Triticum aestivum
Outline: as §1

[16] = system: corn; assay: Test A postemergence; type: in vivo, Zea mays
Outline: as §1

[17] = Preemergence, 500 g ai/ha, 0 no effect, 100 complete control
[18] = preemergence, 125 g ai/ha, visual injury, approx. 10 days
[19] = 125 g ai/ha, 0 to 100 scale, 0 no effect, 100 complete control
[20] = 500 g ai/ha, visual rating after approx. 10 days, 0 to 100 scale (0 no effect, 100 complete control)
[21] = Postemergence, 500 g ai/ha, visual rating after approx. 10 days, 0 to 100 scale (0 no effect, 100 complete control)
[22] = postemergence, 125 g ai/ha, about 10 days, visual rating on 0 to 100 scale (0 no effect, 100 complete control)
[23] = Preemergence, 1000 g ai/ha, 0 no effect, 100 complete control
[24] = 1000 g ai/ha, visual rating after approx. 10 days, 0 to 100 scale (0 no effect, 100 complete control)
[25] = Postemergence, 1000 g ai/ha, visual rating after approx. 10 days, 0 to 100 scale (0 no effect, 100 complete control)

Structure (SMILES): Cc1cc(C(=O)NCC(F)(F)C(F)(F)F)nn1Cc1cccc(C(F)(F)F)c1 [Compound 8]
- Barnyardgrass plant response rating [1, 17]: 0
- Barnyardgrass plant response rating [1, 18]: 0
- Crabgrass, Large plant response rating [2, 17]: 0
- Crabgrass, Large plant response rating [2, 18]: 0
- Foxtail, Giant plant response rating [3, 17]: 0
- Foxtail, Giant plant response rating [3, 18]: 0
- Morningglory plant response rating [4, 17]: 0
- Morningglory plant response rating [4, 18]: 0
- Pigweed plant response rating [5, 17]: 10
- Pigweed plant response rating [5, 18]: 0
- Velvetleaf plant response rating [6, 17]: 0
- Velvetleaf plant response rating [6, 18]: 0
- Wheat plant response rating [7, 18]: 0
- Corn plant response rating [8, 17]: 0
- Corn plant response rating [8, 18]: 0
- Barnyardgrass plant response rating [9, 19]: 0
- Barnyardgrass plant response rating [9, 20]: 10
- Crabgrass, Large plant response rating [10, 21]: 20
- Crabgrass, Large plant response rating [10, 22]: 10
- Foxtail, Giant plant response rating [11, 21]: 20
- Foxtail, Giant plant response rating [11, 22]: 10
- Morningglory plant response rating [12, 21]: 100
- Morningglory plant response rating [12, 22]: 80
- Pigweed plant response rating [13, 21]: 40
- Pigweed plant response rating [13, 22]: 10
- Velvetleaf plant response rating [14, 21]: 10
- Wheat plant response rating [15, 21]: 0
- Wheat plant response rating [15, 22]: 0
- Corn plant response rating [16, 21]: 0
- Corn plant response rating [16, 22]: 0

Structure (SMILES): CCCCNC(=O)c1cc(CC)n(Cc2cccc(C(F)(F)F)c2)n1 [Compound 52]
- Barnyardgrass plant response rating [1, 23]: 10
- Crabgrass, Large plant response rating [2, 23]: 50
- Foxtail, Giant plant response rating [3, 23]: 70
- Morningglory plant response rating [4, 23]: 30
- Pigweed plant response rating [5, 23]: 30
- Velvetleaf plant response rating [6, 23]: 10
- Wheat plant response rating [7, 23]: 0
- Corn plant response rating [8, 23]: 0
- Barnyardgrass plant response rating [9, 24]: 20
- Crabgrass, Large plant response rating [10, 25]: 30
- Foxtail, Giant plant response rating [11, 25]: 30
- Morningglory plant response rating [12, 25]: 40
- Pigweed plant response rating [13, 25]: 50
- Velvetleaf plant response rating [14, 25]: 40
- Wheat plant response rating [15, 25]: 30
- Corn plant response rating [16, 25]: 30

Structure (SMILES): CCc1cc(C(=O)NCCC(F)(F)F)nn1Cc1cccc(OC(F)(F)F)c1 [Compound 55]
- Barnyardgrass plant response rating [1, 23]: 10
- Crabgrass, Large plant response rating [2, 23]: 100
- Foxtail, Giant plant response rating [3, 23]: 90
- Morningglory plant response rating [4, 23]: 20
- Pigweed plant response rating [5, 23]: 80
- Velvetleaf plant response rating [6, 23]: 10
- Wheat plant response rating [7, 23]: 0
- Corn plant response rating [8, 23]: 0
- Barnyardgrass plant response rating [9, 24]: 10
- Crabgrass, Large plant response rating [10, 25]: 50
- Foxtail, Giant plant response rating [11, 25]: 50
- Morningglory plant response rating [12, 25]: 100
- Pigweed plant response rating [13, 25]: 70
- Velvetleaf plant response rating [14, 25]: 90
- Wheat plant response rating [15, 25]: 10
- Corn plant response rating [16, 25]: 20

Structure (SMILES): Cc1cc(C(=O)NCC(F)(F)F)nn1Cc1ccc(F)c(C(F)(F)F)c1 [Compound 12]
- Barnyardgrass plant response rating [1, 17]: 30
- Barnyardgrass plant response rating [1, 18]: 0
- Crabgrass, Large plant response rating [2, 17]: 60
- Crabgrass, Large plant response rating [2, 18]: 40
- Foxtail, Giant plant response rating [3, 17]: 60
- Foxtail, Giant plant response rating [3, 18]: 10
- Morningglory plant response rating [4, 17]: 10
- Morningglory plant response rating [4, 18]: 0
- Pigweed plant response rating [5, 17]: 100
- Pigweed plant response rating [5, 18]: 70
- Velvetleaf plant response rating [6, 17]: 0
- Velvetleaf plant response rating [6, 18]: 0
- Wheat plant response rating [7, 18]: 0
- Corn plant response rating [8, 17]: 0
- Corn plant response rating [8, 18]: 0
- Barnyardgrass plant response rating [9, 19]: 10
- Barnyardgrass plant response rating [9, 20]: 20
- Crabgrass, Large plant response rating [10, 21]: 50
- Crabgrass, Large plant response rating [10, 22]: 30
- Foxtail, Giant plant response rating [11, 21]: 30
- Foxtail, Giant plant response rating [11, 22]: 20
- Morningglory plant response rating [12, 21]: 90
- Morningglory plant response rating [12, 22]: 50
- Pigweed plant response rating [13, 21]: 100
- Pigweed plant response rating [13, 22]: 80
- Velvetleaf plant response rating [14, 21]: 50
- Velvetleaf plant response rating [14, 22]: 40
- Wheat plant response rating [15, 21]: 0
- Wheat plant response rating [15, 22]: 0
- Corn plant response rating [16, 21]: 20
- Corn plant response rating [16, 22]: 10

Structure (SMILES): CCNC(=O)c1cc(CC)n(Cc2cccc(OC(F)(F)F)c2)n1 [Compound 19]
- Barnyardgrass plant response rating [1, 23]: 90
- Crabgrass, Large plant response rating [2, 23]: 100
- Foxtail, Giant plant response rating [3, 23]: 100
- Morningglory plant response rating [4, 23]: 90
- Pigweed plant response rating [5, 23]: 100
- Velvetleaf plant response rating [6, 23]: 80
- Wheat plant response rating [7, 23]: 10
- Corn plant response rating [8, 23]: 30
- Barnyardgrass plant response rating [9, 24]: 60
- Crabgrass, Large plant response rating [10, 25]: 80
- Foxtail, Giant plant response rating [11, 25]: 70
- Morningglory plant response rating [12, 25]: 90
- Pigweed plant response rating [13, 25]: 100
- Velvetleaf plant response rating [14, 25]: 100
- Wheat plant response rating [15, 25]: 20
- Corn plant response rating [16, 25]: 20

Structure (SMILES): CCc1cc(C(=O)NC)nn1Cc1cccc(C(F)(F)F)c1 [Compound 45]
- Barnyardgrass plant response rating [1, 23]: 10
- Crabgrass, Large plant response rating [2, 23]: 20
- Foxtail, Giant plant response rating [3, 23]: 20
- Morningglory plant response rating [4, 23]: 10
- Pigweed plant response rating [5, 23]: 10
- Velvetleaf plant response rating [6, 23]: 0
- Wheat plant response rating [7, 23]: 0
- Corn plant response rating [8, 23]: 0
- Barnyardgrass plant response rating [9, 24]: 10
- Crabgrass, Large plant response rating [10, 25]: 40
- Foxtail, Giant plant response rating [11, 25]: 70
- Morningglory plant response rating [12, 25]: 90
- Pigweed plant response rating [13, 25]: 60
- Velvetleaf plant response rating [14, 25]: 30
- Wheat plant response rating [15, 25]: 10
- Corn plant response rating [16, 25]: 20

Structure (SMILES): CCNC(=O)c1cc(SC)n(Cc2cccc(C(F)(F)F)c2)n1 [Compound 23]
- Barnyardgrass plant response rating [1, 23]: 0
- Crabgrass, Large plant response rating [2, 23]: 0
- Foxtail, Giant plant response rating [3, 23]: 0
- Morningglory plant response rating [4, 23]: 0
- Pigweed plant response rating [5, 23]: 0
- Velvetleaf plant response rating [6, 23]: 0
- Wheat plant response rating [7, 23]: 0
- Corn plant response rating [8, 23]: 0
- Barnyardgrass plant response rating [9, 24]: 10
- Crabgrass, Large plant response rating [10, 25]: 30
- Foxtail, Giant plant response rating [11, 25]: 30
- Morningglory plant response rating [12, 25]: 100
- Pigweed plant response rating [13, 25]: 40
- Velvetleaf plant response rating [14, 25]: 30
- Wheat plant response rating [15, 25]: 0
- Corn plant response rating [16, 25]: 20

Structure (SMILES): CCc1cc(C(=O)NCC(C)C)nn1Cc1cccc(C(F)(F)F)c1 [Compound 49]
- Barnyardgrass plant response rating [1, 23]: 30
- Crabgrass, Large plant response rating [2, 23]: 90
- Foxtail, Giant plant response rating [3, 23]: 100
- Morningglory plant response rating [4, 23]: 30
- Pigweed plant response rating [5, 23]: 50
- Velvetleaf plant response rating [6, 23]: 0
- Wheat plant response rating [7, 23]: 0
- Corn plant response rating [8, 23]: 0
- Barnyardgrass plant response rating [9, 24]: 20
- Crabgrass, Large plant response rating [10, 25]: 30
- Foxtail, Giant plant response rating [11, 25]: 100
- Morningglory plant response rating [12, 25]: 100
- Pigweed plant response rating [13, 25]: 50
- Velvetleaf plant response rating [14, 25]: 50
- Wheat plant response rating [15, 25]: 30
- Corn plant response rating [16, 25]: 30
